{"source": "patent US7635714B2", "about": "“Methods of treating dyschezia” (priority 2002, dated 2009)", "key": {"healthy male volunteers": {"system": "healthy male volunteers", "assay": "Acceleratory effect on defecation in healthy volunteers (Phase I, repeated oral administration)", "assay_type": "in vivo, human", "experimental": "The acceleratory effect of GM-611 on defecation was studied by repeated oral administration of GM-611 in Phase I trials. Healthy male volunteers, in groups of 6, were orally administered for 10 days with placebo or GM-611 (5 mg, 10 mg, 20 mg) on a three-times-a-day basis together with 150 mL water at 30 minutes before each meal, provided that the volunteers were administered once before breakfast on the first and tenth days. The volunteers were then monitored for their defecation during the period of administration. The acceleratory effect on defecation was assessed by the daily frequency of defecation, the number of days that at least one defecation was observed (the number of defecation days), and stool condition (watery diarrhea, muddy diarrhea, muddy soft stool, formed soft stool, normal stool, hard stool, very hard stool). It should be noted that in this test, the subjects were allocated at random to each test group and tested in a double-blind manner."}, "normal dogs (beagle)": {"system": "normal dogs (beagle)", "assay": "Acceleratory effect on defecation in normal dogs (time until the first defecation)", "assay_type": "in vivo, dog", "experimental": "In addition to the studies in rabbits, the acceleratory effect of GM-611 on defecation was also studied in normal dogs. Five beagle dogs were each catheterized to insert an intragastric catheter (Chugai Pharmaceutical Co., Ltd., 8.3-9.9 kg, 2 males and 3 females). Each dog was fed with pellets (CD-5 (CLEA Japan, Inc.), about 250 g) at 9:00 a.m. and then monitored for its defecation immediately after feeding. One hour after feeding, the animals […] defecation within 1 hour were intragastrically administered via the catheter with vehicle (3 w/v % gum arabic suspension) or GM-611 (0.3 mg/kg, 1 mg/kg, 3 mg/kg) and then measured for the time until the first defecation after administration."}, "[1]": {"settings": "compared with erythromycin; cited from earlier work"}, "normal rabbits (Kbl:JW)": {"system": "normal rabbits (Kbl:JW)", "assay": "Acceleratory effects on defecation in normal rabbits (stool weight, water content of stools)", "assay_type": "in vivo, rabbit", "description": "To study the difference of effects between GM-611 and a laxative, sennoside (sennoside solution (trade name), Taisho Pharm. Ind., Ltd.) was used as a laxative to compare with acceleratory effects of GM-611 on defecation. More specifically, normal rabbits were orally administered with GM-611 or sennoside and then measured for the weight and water content of stools. Normal rabbits (Kbl:JW), in groups of 13 to 15, were orally administered with vehicle (3 w/v % gum arabic suspension), GM-611 (1.25 mg/kg, 2.5 mg/kg, 5 mg/kg, 10 mg/kg), vehicle (purified water), or sennoside (12 mg/kg, 24 mg/kg, 48 mg/kg). The stool weight was then measured every 4 hours until 8 hours after administration. Also, their stools were collected, dried in a dry oven (at 120° C. for 24 hours or longer) and then the dry stool weight was measured to calculate the water content of stools (%) according to the following formula: ((wet stool weight [g]−dry stool weight [g]))/wet stool weight [g])×100."}, "[2]": {"system": "rabbits with morphine-induced defecation dysfunction", "assay": "Improving effect on morphine-induced defecation dysfunction in rabbits (stool weight)", "assay_type": "in vivo, rabbit", "settings": "morphine 1 mg/kg s.c.", "experimental": "Effects on defecation dysfunction can be studied using an animal model with morphine-induced defecation dysfunction. To study the effect of GM-611 on defecation dysfunction, rabbits were subcutaneously administered with morphine (Anpec (trade name), Dainippon Pharmaceutical Co., Ltd.) to induce defecation dysfunction and then the stool weight was measured to evaluate the acceleratory effect of GM-611 on defecation in the model. Rabbits (Kbl:JW) were subcutaneously administered with vehicle (physiological saline) or morphine (1 mg/kg) and fed for 30 minutes (feeding stimulation), followed by oral administration of vehicle (3 w/v % gum arabic suspension) or GM-611 at a dose of 1.25 mg/kg, 2.5 mg/kg, 5 mg/kg, 10 mg/kg or 20 mg/kg. The stool weight for 2.5 hours after administration was measured (11 rabbits in each group) to examine the improving effect of GM-611 on morphine-induced defecation dysfunction."}}}
{"molecule": "CC[C@H]1OC(=O)[C@H](C)[C@@H](O[C@H]2C[C@@](C)(OC)[C@@H](O)[C@H](C)O2)[C@H](C)[C@@H](O[C@@H]2O[C@H](C)C[C@H](N(C)C(C)C)[C@H]2O)[C@@]2(C)CC(C)=C(O2)[C@H](C)C(=O)[C@]1(C)OC.CC[C@H]1OC(=O)[C@H](C)[C@@H](O[C@H]2C[C@@](C)(OC)[C@@H](O)[C@H](C)O2)[C@H](C)[C@@H](O[C@@H]2O[C@H](C)C[C@H](N(C)C(C)C)[C@H]2O)[C@@]2(C)CC(C)=C(O2)[C@H](C)C(=O)[C@]1(C)OC.O=C(O)/C=C/C(=O)O", "note": "[GM-611, erythromycin, 8,9-didehydro-N-demethyl-9-deoxo-6,11-dideoxy-6,9-epoxy-12-O-methyl N-(1-methylethyl)-11-oxo-, (2E)-2-butenedioate (2:1)]", "values": [{"measurement": "average number of defecation days", "setting": "healthy male volunteers; healthy male volunteers, 5, 10, 20 mg three times a day oral for 10 days, averaged over all GM-611 groups, placebo 6.0", "value": 8.2}, {"measurement": "average daily frequency of defecation", "setting": "healthy male volunteers; healthy male volunteers, 5, 10, 20 mg three times a day oral for 10 days, placebo 0.7", "value": 1.0}, {"measurement": "stool condition", "setting": "healthy male volunteers; healthy male volunteers, GM-611-treated groups vs placebo-treated group", "value": "no change"}, {"measurement": "stool condition", "setting": "normal dogs (beagle); at first defecation after administration", "value": "not diarrhea"}, {"measurement": "time until the first defecation after administration", "setting": "normal dogs (beagle); intragastric 0.3, 1, 3 mg/kg, 1 hour after feeding", "value": "dose-dependently decreased"}, {"measurement": "antibacterial action", "setting": "[1]", "value": "weaker antibacterial action than erythromycin"}, {"measurement": "water content of stool", "setting": "normal rabbits (Kbl:JW); oral 1.25-10 mg/kg GM-611", "value": "no change"}, {"measurement": "stool weight", "setting": "normal rabbits (Kbl:JW); oral 1.25-10 mg/kg, 0 to 4 hours after administration, vs vehicle", "value": "dose-dependently increased"}, {"measurement": "stool weight at the maximum dose", "setting": "[2]; GM-611 20 mg/kg oral, 2.5 hours", "value": "reached the same level as observed in the morphine-untreated group"}, {"measurement": "morphine-induced defecation dysfunction (stool weight for 2.5 hours after administration)", "setting": "[2]; feeding stimulation, oral GM-611 1.25-20 mg/kg", "value": "dose-dependently improved"}]}
{"molecule": "CN1CC[C@]23c4c5ccc(O)c4O[C@H]2[C@@H](O)C=C[C@H]3[C@H]1C5", "note": "[morphine, reference compound]", "values": [{"measurement": "defecation enhanced by feeding stimulation (stool weight)", "setting": "[2]; vs physiological saline", "value": "significantly inhibited"}]}
{"molecule": "sennoside [reference compound]", "values": [{"measurement": "water content of stools", "setting": "normal rabbits (Kbl:JW); oral sennoside 12-48 mg/kg", "value": "increased dose-dependently"}, {"measurement": "stool weight", "setting": "normal rabbits (Kbl:JW); oral sennoside 12-48 mg/kg, significant during 4 to 8 hours after administration (delayed)", "value": "dose-dependently increased"}]}
